Results published in patent US20100324147A1, “ARYLCYCLOPROPYLAMINES AND METHODS OF USE” (priority 2009, published 2010).

Experiments:
Format in all cases: biochemical
Conditions in all cases: for Ki: inhibitor concentration that yields half the maximal rate of inactivation; for kinact: maximal rate of inactivation
LSD1 = LSD1 (Homo sapiens, UniProt O60341); experiment: HRP-coupled amine oxidase assay, time-dependent inactivation of LSD1
Protocol: (§1) For example, in vitro enzymatic assays may be performed in which hydrogen peroxide generated from reoxidation of the FAD cofactor by molecular oxygen by LSD1 or MAOs is monitored, e.g., using a horseradish peroxidase (HRP) coupled assay. The enzyme may be incubated with an appropriate peptide substrate that includes a dimethylated lysine residue, as well as an arylcyclopropylamine compound of the invention. A fluorogenic substrate may be included in the reaction, which upon reaction with H2O2 produced by the enzyme produces a fluorescent substrate that may be detected. Inhibition kinetics may then be determined by appropriate fitting of the data.
The C-terminal GYG was added to allow for quantification of the peptide concentration.
(§2) The peroxide production generated from reoxidation of the FAD cofactor by molecular oxygen by LSD1 or MAOs was monitored using a horseradish peroxidase (HRP) coupled assay (FIG. 1). Amplex red was used as the fluorogenic electron acceptor and the fluorescence (excitation 560 nm, emission 590 nm) was measured using a Molecular Devices Spectra Max Gemini EM plate reader. The inhibition kinetics were determined by fitting the progress curves to eq. 1 describing time-dependent inactivation to determine kobs:
(§3) product=(vi/kobs)(1−e^−k^obs^t) (1)
(§4) where vi is the initial rate prior to inactivation, t is time and kobs is the observed rate of inactivation. The resulting values were plotted as a function of inhibitor concentration to obtain values of Ki and kinact according to eq. 2.
(§5) where kinact is the maximal rate of inactivation and Ki is the inhibitor concentration that yields half that rate of inactivation.

MAO B = target: T1, MAO B (Homo sapiens, UniProt P27338); experiment: HRP-coupled amine oxidase assay, time-dependent inactivation of MAO B
T1 sequence (P27338 1-520): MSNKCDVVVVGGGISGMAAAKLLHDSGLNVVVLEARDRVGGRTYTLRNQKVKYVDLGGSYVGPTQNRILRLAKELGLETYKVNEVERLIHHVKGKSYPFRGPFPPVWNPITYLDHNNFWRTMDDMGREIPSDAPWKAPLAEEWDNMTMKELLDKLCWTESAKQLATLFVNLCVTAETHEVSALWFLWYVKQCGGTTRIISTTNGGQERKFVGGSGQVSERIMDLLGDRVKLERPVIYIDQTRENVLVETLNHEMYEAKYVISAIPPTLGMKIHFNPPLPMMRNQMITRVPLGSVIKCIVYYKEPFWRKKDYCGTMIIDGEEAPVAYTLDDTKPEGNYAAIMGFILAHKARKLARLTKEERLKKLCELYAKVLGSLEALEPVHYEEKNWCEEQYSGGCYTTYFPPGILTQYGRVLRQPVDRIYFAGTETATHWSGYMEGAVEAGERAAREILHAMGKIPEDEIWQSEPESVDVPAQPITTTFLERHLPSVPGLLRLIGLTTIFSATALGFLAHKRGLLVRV
Protocol: as §1, §2, §3, §4, §5

MAO A = target: T2, MAO A (Homo sapiens, UniProt P21397); experiment: HRP-coupled amine oxidase assay, time-dependent inactivation of MAO A
T2 sequence (P21397 1-527): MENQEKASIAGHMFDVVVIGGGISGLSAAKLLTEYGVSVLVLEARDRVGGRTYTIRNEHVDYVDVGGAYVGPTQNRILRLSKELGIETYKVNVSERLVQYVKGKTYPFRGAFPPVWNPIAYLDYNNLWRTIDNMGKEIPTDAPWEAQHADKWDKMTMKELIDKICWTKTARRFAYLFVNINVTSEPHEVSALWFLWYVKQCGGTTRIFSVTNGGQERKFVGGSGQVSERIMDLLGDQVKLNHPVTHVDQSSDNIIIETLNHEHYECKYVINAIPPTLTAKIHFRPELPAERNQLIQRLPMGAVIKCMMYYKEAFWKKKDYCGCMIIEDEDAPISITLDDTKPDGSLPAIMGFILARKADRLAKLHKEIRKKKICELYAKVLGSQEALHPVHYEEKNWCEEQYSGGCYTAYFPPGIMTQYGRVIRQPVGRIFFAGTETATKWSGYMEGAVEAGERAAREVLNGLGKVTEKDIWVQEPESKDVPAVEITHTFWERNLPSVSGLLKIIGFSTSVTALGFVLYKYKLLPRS
Protocol: as §1, §2, §3, §4, §5

SMILES	kinact/KI (LSD1) [M⁻¹ s⁻¹]	Ki (LSD1) [µM]	kinact (LSD1) [s⁻¹]	kinact/KI (MAO B) [M⁻¹ s⁻¹]	Ki (MAO B) [µM]	kinact (MAO B) [s⁻¹]	kinact/KI (MAO A) [M⁻¹ s⁻¹]	Ki (MAO A) [µM]	kinact (MAO A) [s⁻¹]
CCOc1ccc(C2CC2N)cc1 (stereo not shown) [compound 1]	45	456 ± 86	0.0204 ± 0.0018	762	63 ± 10	0.048 ± 0.004	3140	4.3 ± 0.8	0.0135 ± 0.0004
CC(C)Oc1ccc(C2CC2N)cc1 (stereo not shown) [compound 2]	54	352 ± 76	0.0192 ± 0.0017	383	106 ± 20	0.046 ± 0.006	1320	19.7 ± 4.6	0.026 ± 0.002
NC1CC1c1ccc(Oc2ccccc2)cc1 (stereo not shown) [compound 3]	–	–	–	1100	29.5 ± 4.4	0.0623 ± 0.0018	5720	12.4 ± 4.3	0.071 ± 0.007
NC1CC1c1cccc(OCc2ccccc2)c1 (stereo not shown) [compound 4]	33	760 ± 280	–	–	–	–	–	–	–
CC(C)(C)c1ccc(Sc2ccc(C3CC3N)cc2)cc1 (stereo not shown) [compound 5]	40	–	0.0215 ± 0.003	–	–	–	–	–	–
